Reference: US5352667A, “Non-peptidic surrogates of the Arg-Gly-Asp sequence and pharmaceutical compositions comprising them” (priority 1991, dated 1994)

Assays:
[1] = system: B16-melanoma cells adhesion to VN; assay: Inhibition of B16-melanoma cell adhesion to VN; assay type: cell-based, murine; settings: for % inhibition of adhesion of B16-melanoma cells to VN / % Adhesion of B16-melanoma cells to VN: surrogates 0.2 mM; for % inhibition of adhesion of B16-melanoma cells to VN: * P<0.05; for % Adhesion of B16-melanoma cells to VN: none 68 ± 5
Method: (§1) To examine the adhesive properties of tumor cells, 1 μg/50μ/well of FN or 0.3μg/well of VN were added to 96-flat bottom microtiter wells for 12 h. Unbound proteins were then washed away and remaining binding sites were blocked with 0.1% BSA added to the wells for 2 h and washed. Murine B16-melanoma F-1 cells were metabolically labeled with ^35 S-methionine (New England Nuclear) for 2 h, chased for 18 h and extensively washed. The cell suspension was resuspened in RPMI supplemented with 1% BSA containing 1 mM CaCl2 and MgCl2. Tumor cell adhesion to control wells or to wells coated with BSA was always 2-5%. The tested non-peptidic surrogates, 0.2 mM in PBS, were used to pretreat the tumor cells for 15 min before seeding the cells *, P<0.05.
(§2) In a first series of experiments, the potential inhibitory action of the RGD surrogate SF-6,5 on adhesion of B16 melanoma cells to FN or VN was compared to that of the RGE surrogate SF-6,6 and to that of RGD, GRGDSPK and GRGESP peptides.

GPIIb-IIIa = GPIIb-IIIa (Homo sapiens, UniProt P05106+P08514); assay: Inhibition of the binding capacity of anti-GPIIb-IIIa mAb (PAC-1) to platelets; settings: FIG. 6, 0-500μM, ADP-activated platelets
Method: To investigate whether the RGD surrogates actually bind to the GPIIb-IIIa integrin, their ability to compete with a monoclonal antibody (mAb) specific to GPIIb-IIIa was investigated. This mAb, designated PAC-1, specific for the activated receptor, binds GPIIb-IIIa in an RGD-dependent manner (Taub, R. et al. (1989) J.Biol.Chem. 264: 259).
ADP-activated platelets were incubated with FITC-conjugated PAC-1 mAb in the presence of various peptidic and non-peptidic compounds, as follows: the platelet rich plasma were gel-filtrated into modified Tryode's solution (137.5 mM Nacl, 4 mN Hepes, 2.6 mM KCl,1 mM MgCl2, 3.3 mM NaH2 PO4, 5.6 mM glucose at pH 7.4) containing 350μg/ml BSA (which was used as the incubation buffer in further steps; Tryode's/BSA). The final count in the cell assays was 2×10^6 per ml. The cells were then activated with 10μM ADP and epinephrine. To examine RGD peptides and related analogues as competitors for the binding capacity of the PAC-1 mAb to platelets, the cells were incubated in 50μl Tryode's/BSA supplemented with 1 mM CaCl2 for 30 min in 25° C., in the presence of 0-500μM peptides or peptide-analogues with 10μg/ml FITC labeled PAC-1. The fluorescence profile of the cells was determined using FACScan (Beckton Dickenson) at 488 nm. In FIG. 6: GRGDSPK (empty circles), GRGESP (filled triangles), compound SF-6,5 (empty triangles), compound SF-6,6 (filled circles) (the data shown here represent results obtained in one of three experiments which were essentially identical).

[2] = system: B16-melanoma cells adhesion to FN; assay: Inhibition of B16-melanoma cell adhesion to FN; assay type: cell-based, murine; settings: for B-16 melanoma cell adhesion to FN, in words: Table 2A; for % inhibition of adhesion of B16-melanoma cells to FN / % Adhesion of B16-melanoma cells to FN: surrogates 0.2 mM; for % inhibition of adhesion of B16-melanoma cells to FN: * P<0.05; for % Adhesion of B16-melanoma cells to FN: none 75 ± 5
Method: as §1, §2
In a further set of experiments, the inhibitory activity of the RGD surrogates SF-6,5 and NS-11 on the adhesion of B16 murine melanoma cells to FN was compared to that of the GRGDSP peptide.

[3] = system: CD4^+ T cell adhesion to 120 kD fragment of FN; assay: Inhibition of activated CD4+ T cell adhesion to 120 kD fragment of FN; assay type: cell-based, human; settings: for % inhibition of adhesion of activated CD4^+ T cell to 120 kD fragment of FN / % Adhesion of activated CD4^+ T cell to 120 kD fragment of FN: 0.2 mM peptides and surrogates, mAb anti-CD29 1/200, anti-VLA5 1/400 diluted; for % inhibition of adhesion of activated CD4^+ T cell to 120 kD fragment of FN: * P<0.05; for % Adhesion of activated CD4^+ T cell to 120 kD fragment of FN: PMA activated, none 43 ± 4; for T cell adhesion to FN, in words: 0.2 mM, 120 kD fragment of FN
Method: To examine the adhesive properties of the T cells, 1 μg/50 μl/well of either fibronectin (FN) (Sigma), the 120 kD cell attachment fragment of FN (Telios Pharm. Inc. San Diego, CA), or laminin (LN) (Sigma), were added to 96-flat bottom microtiter-wells for 12 h. Unbound proteins were then washed away and remaining binding sites were blocked with 0.1% bovine serum albumin (BSA) added to the wells for 2 h and washed. CD4+T cells were purified from peripheral blood mononuclear leukocytes obtained from healthy human donors. The mononuclear cells were isolated using a Ficoll gradient, washed and incubated in RPMI supplemented with 10% fetal calf serum (FCS) and antibiotics in petri dishes at 37° C. humidified CO2 incubator. After 2 h, the non-adherent cells were isolated and applied on nylon-wool columns (1.5 h). CD4^+ T cells were then negatively selected by exposure of the cells to a cocktail of anti-CD8, CD19, and CD14 monoclonal antibodies (mAb) conjugated to magnetic-beads (Advanced Magnetics, MA). Unbound cells were recovered and their phenotype was examined. Purity of the CD4^+ T cells was always greater than 92% as determined by FACScan.
The purified CD4^+ T cells were radioactively labeled with ^51 [Cr](New England Nuclear) in RPMI +20% FCS for 2 h and washed. The cells were counted and seeded (0.2×10^5 cells) on the precoated microtiter wells in the presence or the absence of the various inhibitors. Coating was made either with FN, the 120 kD cell-attachment fragment of FN or with control adhesive protein laminin (LN). The inhibitors were various surrogates according to the invention, other test molecules or mAb. After 30 min incubation (in […] CO2 -- humidified incubator) the T cells were activated by 10 ng/ml phorbol myristate acetate (PMA) and the percent of T cells attached to the protein substrates was measured. Unbound cells were washed away after 20-30 min, the bound cells were lysed and their radioactivity was measured using radioactive counter. The amount of the radioactivity of the cell lysates represent the matrix-adherent cells and percent binding was calculated in comparison to the total radioactivity added to the wells. Activated T cell adhesion to control wells or to wells coated with BSA was always 2-5%; the level of adhesion of the non-activated T cells was always below 5%. Where indicated, 1/200 diluted mAb anti-CD29 (anti-β1 mAb Serotec, GB), or 1/400 diluted anti-VLA5 (the β1α5 FN-integrin receptor) mAb (Telios Pharm. Inc. San Diego), or 0.2 mM of RGD, GRGDSPK or GRGESP peptides (Sigma) were used. The tested non-peptidic surrogates, 0.2 mM in PBS, were used to pretreat the T cells for 15 min before seeding the cells *, P<0.05. The results shown in Tables 1A, 1B and 1C represent data obtained from several experiments that produced essentially similar results.
The four RGD surrogates, AC-4.

Row | Compound | B-16 melanoma cell adhesion to VN, in words ([1]; Table 2A) | % inhibition of adhesion of B16-melanoma cells to VN [1] [%] | % Adhesion of B16-melanoma cells to VN [1] [%] | Inhibition of PAC-1 binding to platelets, in words (GPIIb-IIIa) | B-16 melanoma cell adhesion to FN, in words [2] | % inhibition of adhesion of B16-melanoma cells to FN [2] [%] | % Adhesion of B16-melanoma cells to FN [2] [%] | % inhibition of adhesion of activated CD4^+ T cell to 120 kD fragment of FN [3] [%] | % Adhesion of activated CD4^+ T cell to 120 kD fragment of FN [3] [%] | T cell adhesion to FN, in words [3]
1 | N=C(N)NCCCCCC(=O)NCCCCC(=O)O [SF-6,5, 6-aza-7-oxo-12-quanidino-dodecanoic acid] | inhibited tumor cell adhesion to both FN and VN | 42 | 40 ± 5 | inhibited PAC-1 staining of the cells in a dose-dependent manner | inhibited tumor cell adhesion to both FN and VN | 55 | 34 ± 4 | 49 | 22 ± 2 | most prominent inhibition
2 | N=C(N)NCCCCCC(=O)NCCCCCC(=O)O [SF-6,6] |  | 0 | 70 ± 7 | failed to inhibit PAC-1 binding to the platelet integrin receptor |  | 0 | 75 ± 9 | 0 | 46 ± 2 | did not inhibit T cell adhesion to both FN and LN
3 | GRGDSPK [RGD peptide (Sigma)] |  | 86 | 10 ± 2 | inhibited PAC-1 staining of the cells in a dose-dependent manner | found to be inhibited by the GRGDSPK peptide | 80 | 15 ± 4 | 54 | 20 ± 2 | specifically inhibited
